This passage reports IC50 results from patent US9556179B2 (BRISTOL-MYERS SQUIBB COMPANY, priority 2012, dated 2017).

The target of assay [1] is CK1ε (Homo sapiens (Human), UniProt P49674). The assay can be described thus: CK1ε kinase assay (Caliper LABCHIP electrophoretic separation of fluoresceinated peptide substrate and product). The format is biochemical. The conditions noted are these: 200 pM enzyme, 50 μM ATP, 22 hours at room temperature. In a few lines:
(§1)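 IC50 values were obtained by non-linear regression from eleven-concentration titrations. The kinase reactions were incubated for 22 hours at room temperature before termination with 35 mM EDTA.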

The target of assay [2] is CK1δ (Homo sapiens (Human), UniProt P48730). The assay can be described thus: CK1δ kinase assay (Caliper LABCHIP electrophoretic separation of fluoresceinated peptide substrate and product). The format is biochemical. The conditions noted are these: 200 pM enzyme, 50 μM ATP, 22 hours at room temperature. An outline of the steps: as §1
CK1δ, sequence (P48730 whole entry): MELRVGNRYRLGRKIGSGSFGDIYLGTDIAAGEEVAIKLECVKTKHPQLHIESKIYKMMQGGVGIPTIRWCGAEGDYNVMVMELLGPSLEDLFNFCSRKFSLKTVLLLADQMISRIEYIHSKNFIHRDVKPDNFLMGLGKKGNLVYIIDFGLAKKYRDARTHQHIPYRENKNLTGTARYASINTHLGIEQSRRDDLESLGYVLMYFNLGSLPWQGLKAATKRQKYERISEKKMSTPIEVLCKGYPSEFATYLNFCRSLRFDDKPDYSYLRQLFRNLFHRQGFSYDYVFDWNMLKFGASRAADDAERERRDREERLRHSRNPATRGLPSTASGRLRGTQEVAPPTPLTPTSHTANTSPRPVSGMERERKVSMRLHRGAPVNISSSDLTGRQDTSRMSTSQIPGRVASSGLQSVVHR

CK1ε, sequence (P49674 whole entry): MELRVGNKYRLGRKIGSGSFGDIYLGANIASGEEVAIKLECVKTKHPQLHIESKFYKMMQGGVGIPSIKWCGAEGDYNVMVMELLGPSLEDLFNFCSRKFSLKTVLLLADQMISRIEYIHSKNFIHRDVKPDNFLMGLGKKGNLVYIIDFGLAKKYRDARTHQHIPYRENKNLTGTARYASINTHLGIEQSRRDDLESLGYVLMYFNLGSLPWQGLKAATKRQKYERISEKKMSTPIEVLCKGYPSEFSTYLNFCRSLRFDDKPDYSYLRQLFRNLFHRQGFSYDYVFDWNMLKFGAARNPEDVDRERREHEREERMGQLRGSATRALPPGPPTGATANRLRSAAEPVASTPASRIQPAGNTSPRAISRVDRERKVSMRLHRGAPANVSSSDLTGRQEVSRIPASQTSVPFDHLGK

For `Cc1nc(-c2ccc(F)cc2)c(-c2ccc3nc(NC(=O)c4ccc(-c5ccc(Cl)cc5)[nH]4)cn3n2)n1C` [Compound 329, 5-(4-chlorophenyl)-N-(6-(4-(4-fluorophenyl)-1,2-di-methyl-1H-imidazol-5-yl)imidazo[1,2-b]pyridazin-2-yl)-1H-pyrrole-2-carboxamide], the figures for the IC50 in assay [1] and in assay [2] were 18.5 nM and 3.47 nM, respectively.

Consider `Cc1nc(-c2ccc(F)cc2)c(-c2ccc3nc(NC(=O)c4cccc5cnccc45)cn3n2)n1C` [Compound 330, N-(6-(4-(4-fluorophenyl)-1,2-dimethyl-1H-imidazol-5-yl)imidazo[1,2-b]pyridazin-2-yl)-5-isoquinoline-carboxamide], for which the figures for the IC50 in assay [1] and in assay [2] were 3.34 nM and 0.373 nM, respectively.

With `Cc1nc(-c2ccc(F)cc2)c(-c2ccc3nc(NC(=O)c4cccc5ccncc45)cn3n2)n1C` [Compound 331, N-(6-(4-(4-fluorophenyl)-1,2-dimethyl-1H-imidazol-5-yl)imidazo[1,2-b]pyridazin-2-yl)-8-isoquinoline-carboxamide], the IC50 – broadly, the concentration needed to halve the response being measured – came out at 1.45 nM in assay [1] and 0.249 nM in assay [2].

Take `Cc1nc(-c2ccc(F)cc2)c(-c2ccc3nc(NC(=O)c4cc5ccc(F)cc5[nH]4)cn3n2)n1C` [Compound 332, 6-fluoro-N-(6-(4-(4-fluoro-phenyl)-1,2-dimethyl-1H-imidazol-5-yl)imidazo[1,2-b]pyridazin-2-yl)-1H-indole-2-carboxamide]: the figures for the IC50 in assay [1] and in assay [2] were 6.86 nM and 0.87 nM, respectively.

With `Cc1nc(-c2ccc(F)cc2)c(-c2ccc3nc(NC(=O)c4ccc(-c5ccccc5)[nH]4)cn3n2)n1C` [Compound 333, N-(6-(4-(4-fluorophenyl)-1,2-dimethyl-1H-imidazol-5-yl)imidazo[1,2-b]pyridazin-2-yl)-5-phenyl-1H-pyrrole-2-carboxamide], the IC50 is 3.28 nM in assay [1] and 1.33 nM in assay [2].

In the case of `Cc1nc(-c2ccc(F)cc2)c(-c2ccc3nc(NC(=O)c4c[nH]c5ccncc45)cn3n2)n1C` [Compound 334, N-(6-(4-(4-fluorophenyl)-1,2-dimethyl-1H-imidazol-5-yl)imidazo[1,2-b]pyridazin-2-yl)-1H-pyrrolo[3,2-c] pyridine-3-carboxamide], the IC50 was 0.966 nM in assay [1] and 0.824 nM in assay [2].

On to `Cc1nc(-c2ccc(F)cc2)c(-c2ccc3nc(NC(=O)c4ccns4)cn3n2)n1C` [Compound 335, N-(6-(4-(4-fluorophenyl)-1,2-dimethyl-1H-imidazol-5-yl)imidazo[1,2-b]pyridazin-2-yl)-5-isothiazolecarboxamide], for which the IC50 in assay [1] came out at 2.57 nM; in assay [2] it was 0.476 nM.

Turning to `Cc1nc(-c2ccc(F)cc2)c(-c2ccc3nc(NC(=O)c4ccc5ncccc5c4)cn3n2)n1C` [Compound 336, N-(6-(4-(4-fluorophenyl)-1,2-dimethyl-1H-imidazol-5-yl)imidazo[1,2-b]pyridazin-2-yl)-6-quinolinecarboxamide], the IC50 was determined as 2.2 nM in assay [1] and 0.507 nM in assay [2].

With `Cc1nc(-c2ccc(F)cc2)c(-c2ccc3nc(NC(=O)c4ccc5cccnc5c4)cn3n2)n1C` [Compound 337, N-(6-(4-(4-fluorophenyl)-1,2-dimethyl-1H-imidazol-5-yl)imidazo[1,2-b]pyridazin-2-yl)-7-quinolinecarboxamide], the IC50 in assay [1] worked out at 2.58 nM; in assay [2], 0.271 nM.

As for `Cc1c[nH]c(C(=O)Nc2cn3nc(-c4c(-c5ccc(F)cc5)nc(C)n4C)ccc3n2)c1` [Compound 338, N-(6-(4-(4-fluorophenyl)-1,2-dimethyl-1H-imidazol-5-yl)imidazo[1,2-b]pyridazin-2-yl)-4-methyl-1H-pyrrole-2-carboxamide], the IC50 was determined as 0.768 nM in assay [1] and 0.368 nM in assay [2].

As for `Cc1nc(-c2ccc(F)cc2)c(-c2ccc3nc(NC(=O)c4ccc5cnccc5c4)cn3n2)n1C` [Compound 339, N-(6-(4-(4-fluorophenyl)-1,2-dimethyl-1H-imidazol-5-yl)imidazo[1,2-b]pyridazin-2-yl)isoquinoline-6-carboxamide], the figures for the IC50 in assay [1] and in assay [2] were 1.61 nM and 0.187 nM, respectively.

As to `Cc1nc(-c2ccc(F)cc2)c(-c2ccc3nc(NC(=O)c4snnc4-c4ccccc4)cn3n2)n1C` [Compound 340, N-(6-(4-(4-fluorophenyl)-1,2-dimethyl-1H-imidazol-5-yl)imidazo[1,2-b]pyridazin-2-yl)-4-phenyl-1,2,3-thiadiazole-5-carboxamide], the IC50 was found to be 6.28 nM in assay [1] and 0.4 nM in assay [2].

For the compound `Cc1nc(-c2ccc(F)cc2)c(-c2ccc3nc(NC(=O)c4cc5c(F)cccc5[nH]4)cn3n2)n1C` [Compound 341, 4-fluoro-N-(6-(4-(4-fluoro-phenyl)-1,2-dimethyl-1H-imidazol-5-yl)imidazo[1,2-b]pyridazin-2-yl)-1H-indole-2-carboxamide], the IC50 in assay [1] turned out to be 8.85 nM; in assay [2], 1.32 nM.

Take `Cc1nc(-c2ccc(F)cc2)c(-c2ccc3nc(NC(=O)c4c[nH]c5ccccc45)cn3n2)n1C` [Compound 342, N-(6-(4-(4-fluorophenyl)-1,2-dimethyl-1H-imidazol-5-yl)imidazo[1,2-b]pyridazin-2-yl)-1H-indole-3-carboxamide]: the IC50 in assay [1] amounted to 4.89 nM; in assay [2], 1.41 nM.

For the compound `Cc1nc(-c2ccc(F)cc2)c(-c2ccc3nc(NC(=O)c4c[nH]c5ncccc45)cn3n2)n1C` [Compound 343, N-(6-(4-(4-fluorophenyl)-1,2-dimethyl-1H-imidazol-5-yl)imidazo[1,2-b]pyridazin-2-yl)-1H-pyrrolo[2,3-b] pyridine-3-carboxamide], the IC50 amounted to 2.17 nM in assay [1] and 0.921 nM in assay [2].

As to `Cc1nc(-c2ccc(F)cc2)c(-c2ccc3nc(NC(=O)c4cccc5cccnc45)cn3n2)n1C` [Compound 344, N-(6-(4-(4-fluorophenyl)-1,2-dimethyl-1H-imidazol-5-yl)imidazo[1,2-b]pyridazin-2-yl)-8-quinolinecarboxamide], the IC50 amounted to 113 nM in assay [1] and 14.5 nM in assay [2].

Regarding `COc1cccc2[nH]c(C(=O)Nc3cn4nc(-c5c(-c6ccc(F)cc6)nc(C)n5C)ccc4n3)cc12` [Compound 347, N-(6-(4-(4-fluorophenyl)-1,2-dimethyl-1H-imidazol-5-yl)imidazo[1,2-b]pyridazin-2-yl)-4-methoxy-1H-indole-2-carboxamide], the results for the IC50 in assay [1] and in assay [2] were 1.19 nM and 0.379 nM, respectively.

For the compound `Cc1nc(-c2ccc(F)cc2)c(-c2ccc3nc(NC(=O)c4cc[nH]c4)cn3n2)n1C` [Compound 348, N-(6-(4-(4-fluorophenyl)-1,2-dimethyl-1H-imidazol-5-yl)imidazo[1,2-b]pyridazin-2-yl)-1H-pyrrole-3-carboxamide], the IC50 in assay [1] was 5.77 nM; in assay [2], 1.62 nM.

Regarding `Cc1nc(-c2ccc(F)cc2)c(-c2ccc3nc(NC(=O)c4ccnn4C)cn3n2)n1C` [Compound 352, N-(6-(4-(4-fluorophenyl)-1,2-dimethyl-1H-imidazol-5-yl)imidazo[1,2-b]pyridazin-2-yl)-1-methyl-1H-pyrazole-5-carboxamide], the IC50 came out at 3.24 nM in assay [1] and 0.593 nM in assay [2].

Take `CC(=O)N1CCCC1C(=O)Nc1cn2nc(-c3c(-c4ccc(F)cc4)nc(C)n3C)ccc2n1` [Compound 353, 1-acetyl-N-(6-(4-(4-fluoro-phenyl)-1,2-dimethyl-1H-imidazol-5-yl)imidazo[1,2-b]pyridazin-2-yl)-L-pro-linamide]: the IC50 in assay [1] was determined as 74.2 nM; in assay [2] it was 4.94 nM.

Consider `Cc1nc(-c2ccc(F)cc2)c(-c2ccc3nc(NC(=O)c4ccn(C)n4)cn3n2)n1C` [Compound 354, N-(6-(4-(4-fluorophenyl)-1,2-dimethyl-1H-imidazol-5-yl)imidazo[1,2-b]pyridazin-2-yl)-1-methyl-1H-pyrazole-3-carboxamide], for which the IC50 in assay [1] was found to be 10.6 nM; in assay [2], 1.42 nM.

`Cc1nc(-c2ccc(F)cc2)c(-c2ccc3nc(NC(=O)c4cocn4)cn3n2)n1C` [Compound 355, N-(6-(4-(4-fluorophenyl)-1,2-dimethyl-1H-imidazol-5-yl)imidazo[1,2-b]pyridazin-2-yl)-1,3-oxazole-4-carboxamide]: the figures for the IC50 in assay [1] and in assay [2] were 38.7 nM and 3.8 nM, respectively.

With `Cc1nc(-c2ccc(F)cc2)c(-c2ccc3nc(NC(=O)c4ccc(C#N)cc4)cn3n2)n1C` [Compound 356, 4-cyano-N-(6-(4-(4-fluoro-phenyl)-1,2-dimethyl-1H-imidazol-5-yl)imidazo[1,2-b]pyridazin-2-yl)benzamide], the IC50 in assay [1] is 1.91 nM; in assay [2], 0.513 nM.

As to `Cc1nc(-c2ccc(F)cc2)c(-c2ccc3nc(NC(=O)c4cccn4C)cn3n2)n1C` [Compound 357, N-(6-(4-(4-fluorophenyl)-1,2-dimethyl-1H-imidazol-5-yl)imidazo[1,2-b]pyridazin-2-yl)-1-methyl-1H-pyrrole-2-carboxamide], the IC50 in assay [1] came out at 17.6 nM; in assay [2], 1.49 nM.

As for `Cc1nc(-c2ccc(F)cc2)c(-c2ccc3nc(NC(=O)c4ccc[nH]4)cn3n2)n1C` [Compound 358, N-(6-(4-(4-fluorophenyl)-1,2-dimethyl-1H-imidazol-5-yl)imidazo[1,2-b]pyridazin-2-yl)-1H-pyrrole-2-carbox-amide], the results for the IC50 in assay [1] and in assay [2] were 3.92 nM and 0.534 nM, respectively.

As for `Cc1nc(-c2ccc(F)cc2)c(-c2ccc3nc(NC(=O)c4cnn(C)c4)cn3n2)n1C` [Compound 359, N-(6-(4-(4-fluorophenyl)-1,2-dimethyl-1H-imidazol-5-yl)imidazo[1,2-b]pyridazin-2-yl)-1-methyl-1H-pyrazole-4-carboxamide], the values for the IC50 in assay [1] and in assay [2] were 3.17 nM and 0.599 nM, respectively.

On to `Cc1nocc1C(=O)Nc1cn2nc(-c3c(-c4ccc(F)cc4)nc(C)n3C)ccc2n1` [Compound 361, N-(6-(4-(4-fluorophenyl)-1,2-dimethyl-1H-imidazol-5-yl)imidazo[1,2-b]pyridazin-2-yl)-3-methyl-4-isoxazole-carboxamide], for which the figures for the IC50 in assay [1] and in assay [2] were 1260 nM and 74.8 nM, respectively.
